System: rice
Assay: Low temperature assay on rice seedlings
Type: in vivo
In short: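 Nine-day-old etiolated rice seedlings (grown on water at 30 °C±2 °C, dark) immersed in brassinolide analogues at 1–0.0001 mg/L or pure water, held at 1–5 °C for 24 hr. Plant height, leaf area, root weight read at 3, 6, 9, 12 days; leaf and tiller number at 12 days.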

CC(C)[C@H](C)[C@@H](O)[C@H](O)[C@@H](C)[C@H]1CCC2C3COC(=O)C4C[C@H](O)[C@H](O)C[C@]4(C)C3CC[C@@]21C (stereo partly shown) [BR1]
7 cm: Height (0.001 mg/l, 3 °C, 3 days) | Height (0.01 mg/l, 3 °C, 3 days)
11.7 cm^2: Area of leaf (0.0001 mg/l, 2 °C, 6 days)
17 cm^2: Area of leaf (0.001 mg/l, 5 °C, 12 days)
3.9 g: Weight of root (0.0001 mg/l, 1 °C, 12 days) | Weight of root (0.0001 mg/l, 2 °C, 12 days) | Weight of root (0.001 mg/l, 1 °C, 12 days) | Weight of root (0.001 mg/l, 2 °C, 12 days) | Weight of root (0.01 mg/l, 1 °C, 12 days)
14 cm^2: Area of leaf (0.0001 mg/l, 5 °C, 12 days)
2: Number of tiller (0.0001 mg/l, 3 °C, 12 days) | Number of tiller (0.0001 mg/l, 4 °C, 12 days) | Number of tiller (0.0001 mg/l, 5 °C, 12 days) | Number of tiller (0.001 mg/l, 3 °C, 12 days) | Number of tiller (0.001 mg/l, 4 °C, 12 days)
13.4 cm^2: Area of leaf (0.0001 mg/l, 4 °C, 12 days) | Area of leaf (0.01 mg/l, 2 °C, 12 days)
10.3 cm^2: Area of leaf (0.001 mg/l, 2 °C, 3 days) | Area of leaf (0.01 mg/l, 2 °C, 3 days)
14.6 cm^2: Area of leaf (0.001 mg/l, 5 °C, 6 days)
3.1 g: Weight of root (0.0001 mg/l, 1 °C, 6 days) | Weight of root (0.001 mg/l, 1 °C, 6 days) | Weight of root (0.01 mg/l, 2 °C, 9 days)
10.6 cm^2: Area of leaf (0.0001 mg/l, 4 °C, 3 days) | Area of leaf (0.0001 mg/l, 5 °C, 3 days) | Area of leaf (0.001 mg/l, 4 °C, 3 days)
13 cm^2: Area of leaf (0.0001 mg/l, 1 °C, 12 days) | Area of leaf (0.0001 mg/l, 2 °C, 12 days) | Area of leaf (0.0001 mg/l, 4 °C, 9 days) | Area of leaf (0.001 mg/l, 1 °C, 12 days)
16.4 cm^2: Area of leaf (0.001 mg/l, 5 °C, 9 days)
2.5 g: Weight of root (0.0001 mg/l, 3 °C, 3 days) | Weight of root (0.0001 mg/l, 4 °C, 3 days) | Weight of root (0.001 mg/l, 3 °C, 3 days) | Weight of root (0.001 mg/l, 4 °C, 3 days) | Weight of root (0.01 mg/l, 3 °C, 3 days)
3.0 g: Weight of root (0.0001 mg/l, 2 °C, 6 days) | Weight of root (0.0001 mg/l, 5 °C, 12 days) | Weight of root (0.001 mg/l, 2 °C, 6 days) | Weight of root (0.001 mg/l, 5 °C, 9 days) | Weight of root (0.01 mg/l, 1 °C, 6 days) | Weight of root (0.01 mg/l, 2 °C, 6 days)
12.4 cm^2: Area of leaf (0.0001 mg/l, 1 °C, 9 days) | Area of leaf (0.0001 mg/l, 5 °C, 6 days) | Area of leaf (0.001 mg/l, 4 °C, 6 days)
10.2 cm^2: Area of leaf (0.0001 mg/l, 2 °C, 3 days)
7.9 cm: Height (0.001 mg/l, 5 °C, 9 days)
11.3 cm^2: Area of leaf (0.001 mg/l, 1 °C, 6 days)
7.2 cm: Height (0.0001 mg/l, 1 °C, 6 days) | Height (0.0001 mg/l, 2 °C, 6 days) | Height (0.0001 mg/l, 3 °C, 6 days) | Height (0.0001 mg/l, 5 °C, 3 days) | Height (0.001 mg/l, 2 °C, 9 days) | Height (0.01 mg/l, 1 °C, 6 days) | Height (0.01 mg/l, 2 °C, 6 days) | Height (0.01 mg/l, 3 °C, 6 days)
11.9 cm^2: Area of leaf (0.01 mg/l, 1 °C, 6 days)
13.6 cm^2: Area of leaf (0.0001 mg/l, 5 °C, 9 days) | Area of leaf (0.01 mg/l, 1 °C, 12 days)
3.7 g: Weight of root (0.001 mg/l, 5 °C, 12 days)
2.8 g: Weight of root (0.0001 mg/l, 1 °C, 3 days) | Weight of root (0.0001 mg/l, 2 °C, 3 days) | Weight of root (0.0001 mg/l, 5 °C, 6 days) | Weight of root (0.001 mg/l, 1 °C, 3 days) | Weight of root (0.001 mg/l, 2 °C, 3 days) | Weight of root (0.001 mg/l, 5 °C, 3 days) | Weight of root (0.01 mg/l, 1 °C, 3 days) | Weight of root (0.01 mg/l, 2 °C, 3 days)
7.3 cm: Height (0.0001 mg/l, 1 °C, 9 days) | Height (0.0001 mg/l, 2 °C, 9 days) | Height (0.0001 mg/l, 4 °C, 6 days) | Height (0.001 mg/l, 1 °C, 9 days) | Height (0.001 mg/l, 1 °C, 12 days) | Height (0.001 mg/l, 2 °C, 12 days) | Height (0.001 mg/l, 3 °C, 12 days) | Height (0.001 mg/l, 4 °C, 6 days) | Height (0.01 mg/l, 1 °C, 9 days) | Height (0.01 mg/l, 2 °C, 9 days)
13.2 cm^2: Area of leaf (0.0001 mg/l, 3 °C, 12 days) | Area of leaf (0.001 mg/l, 3 °C, 12 days)
7.4 cm: Height (0.0001 mg/l, 1 °C, 12 days) | Height (0.0001 mg/l, 5 °C, 6 days) | Height (0.001 mg/l, 3 °C, 9 days) | Height (0.01 mg/l, 1 °C, 12 days)
11.8 cm^2: Area of leaf (0.001 mg/l, 2 °C, 6 days) | Area of leaf (0.01 mg/l, 2 °C, 6 days)
7.7 cm: Height (0.0001 mg/l, 4 °C, 12 days) | Height (0.001 mg/l, 4 °C, 12 days) | Height (0.001 mg/l, 5 °C, 6 days)
12.6 cm^2: Area of leaf (0.0001 mg/l, 2 °C, 9 days) | Area of leaf (0.0001 mg/l, 3 °C, 9 days) | Area of leaf (0.001 mg/l, 1 °C, 9 days) | Area of leaf (0.001 mg/l, 2 °C, 9 days) | Area of leaf (0.001 mg/l, 3 °C, 9 days) | Area of leaf (0.01 mg/l, 3 °C, 9 days)
2.6 g: Weight of root (0.0001 mg/l, 3 °C, 6 days) | Weight of root (0.0001 mg/l, 4 °C, 6 days) | Weight of root (0.0001 mg/l, 5 °C, 3 days) | Weight of root (0.001 mg/l, 3 °C, 6 days) | Weight of root (0.001 mg/l, 4 °C, 6 days) | Weight of root (0.01 mg/l, 3 °C, 6 days)
7.8 cm: Height (0.0001 mg/l, 5 °C, 12 days)
7.1 cm: Height (0.0001 mg/l, 1 °C, 3 days) | Height (0.0001 mg/l, 2 °C, 3 days) | Height (0.0001 mg/l, 3 °C, 3 days) | Height (0.0001 mg/l, 4 °C, 3 days) | Height (0.001 mg/l, 1 °C, 6 days) | Height (0.001 mg/l, 2 °C, 6 days) | Height (0.001 mg/l, 3 °C, 6 days) | Height (0.001 mg/l, 4 °C, 3 days)
6.9 cm: Height (0.001 mg/l, 1 °C, 3 days) | Height (0.001 mg/l, 2 °C, 3 days) | Height (0.01 mg/l, 1 °C, 3 days) | Height (0.01 mg/l, 2 °C, 3 days)
11.2 cm^2: Area of leaf (0.0001 mg/l, 1 °C, 6 days)
10.1 cm^2: Area of leaf (0.001 mg/l, 1 °C, 3 days) | Area of leaf (0.01 mg/l, 1 °C, 3 days)
12.2 cm^2: Area of leaf (0.0001 mg/l, 4 °C, 6 days)
8.2 cm: Height (0.001 mg/l, 5 °C, 12 days)
13.5 cm^2: Area of leaf (0.001 mg/l, 4 °C, 12 days)
12 cm^2: Area of leaf (0.0001 mg/l, 3 °C, 6 days) | Area of leaf (0.001 mg/l, 3 °C, 6 days) | Area of leaf (0.01 mg/l, 3 °C, 6 days)
10 cm^2: Area of leaf (0.0001 mg/l, 1 °C, 3 days)
3: Number of leaf (0.0001 mg/l, 1 °C, 12 days) | Number of tiller (0.0001 mg/l, 1 °C, 12 days) | Number of leaf (0.0001 mg/l, 2 °C, 12 days) | Number of tiller (0.0001 mg/l, 2 °C, 12 days) | Number of leaf (0.0001 mg/l, 3 °C, 12 days) | Number of leaf (0.0001 mg/l, 4 °C, 12 days) | Number of leaf (0.0001 mg/l, 5 °C, 12 days) | Number of leaf (0.001 mg/l, 1 °C, 12 days) | Number of tiller (0.001 mg/l, 1 °C, 12 days) | Number of leaf (0.001 mg/l, 2 °C, 12 days) | Number of tiller (0.001 mg/l, 2 °C, 12 days) | Number of leaf (0.001 mg/l, 3 °C, 12 days) | Number of leaf (0.001 mg/l, 4 °C, 12 days) | Number of leaf (0.001 mg/l, 5 °C, 12 days) | Number of tiller (0.001 mg/l, 5 °C, 12 days) | Number of leaf (0.01 mg/l, 1 °C, 12 days) | Number of tiller (0.01 mg/l, 1 °C, 12 days) | Number of leaf (0.01 mg/l, 2 °C, 12 days) | Number of tiller (0.01 mg/l, 2 °C, 12 days)
13.1 cm^2: Area of leaf (0.001 mg/l, 2 °C, 12 days) | Area of leaf (0.001 mg/l, 4 °C, 9 days)
2.9 g: Weight of root (0.0001 mg/l, 3 °C, 9 days) | Weight of root (0.0001 mg/l, 3 °C, 12 days) | Weight of root (0.0001 mg/l, 4 °C, 9 days) | Weight of root (0.0001 mg/l, 4 °C, 12 days) | Weight of root (0.0001 mg/l, 5 °C, 9 days) | Weight of root (0.001 mg/l, 3 °C, 9 days) | Weight of root (0.001 mg/l, 3 °C, 12 days) | Weight of root (0.001 mg/l, 4 °C, 9 days) | Weight of root (0.001 mg/l, 4 °C, 12 days) | Weight of root (0.001 mg/l, 5 °C, 6 days)
7.5 cm: Height (0.0001 mg/l, 2 °C, 12 days) | Height (0.0001 mg/l, 3 °C, 9 days) | Height (0.0001 mg/l, 4 °C, 9 days) | Height (0.0001 mg/l, 5 °C, 9 days) | Height (0.001 mg/l, 4 °C, 9 days) | Height (0.001 mg/l, 5 °C, 3 days) | Height (0.01 mg/l, 2 °C, 12 days)
12.9 cm^2: Area of leaf (0.01 mg/l, 1 °C, 9 days)
12.8 cm^2: Area of leaf (0.01 mg/l, 2 °C, 9 days)
10.7 cm^2: Area of leaf (0.001 mg/l, 5 °C, 3 days)
3.2 g: Weight of root (0.0001 mg/l, 2 °C, 9 days) | Weight of root (0.001 mg/l, 2 °C, 9 days) | Weight of root (0.01 mg/l, 2 °C, 12 days)
7.6 cm: Height (0.0001 mg/l, 3 °C, 12 days)
10.4 cm^2: Area of leaf (0.0001 mg/l, 3 °C, 3 days) | Area of leaf (0.001 mg/l, 3 °C, 3 days) | Area of leaf (0.01 mg/l, 3 °C, 3 days)
3.4 g: Weight of root (0.0001 mg/l, 1 °C, 9 days) | Weight of root (0.001 mg/l, 1 °C, 9 days) | Weight of root (0.01 mg/l, 1 °C, 9 days)

Reference: patent US9326506B2, “Preparation method, agricultural composition and applications of natural brassinolide analogs” (CHENGDU NEWSUN CROPSCIENCE CO., LTD, priority 2012, dated 2016)
